Test results published in the supplement of paper PMC10307832.

Compound: O=C(O)c1ccc2c(c1)nc(Nc1cccc(Cl)c1)c1ccncc12 [Silmitasertib] + CC(=O)c1c(C)c2cnc(Nc3ccc(N4CCNCC4)cn3)nc2n(C2CCCC2)c1=O [Palbociclib] (partner 0.5 µM)
Assay: relative viability (nuclei count vs DMSO), 5 days (fraction); higher = more cells survive
In short: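 Five library-drug doses in √10 steps were combined with a fixed anchor-drug dose, or a single drug was given alone, by pin tool to lung cancer cell lines in 1536-well plates the day after seeding. Nuclei were stained and counted after 5 days. Relative viability is the nuclei count in treated wells over that in vehicle wells, taken as the median of duplicate plates.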

Cell Line	relative viability (first compound 0.04 µM)	relative viability (first compound 0.4 µM)	relative viability (first compound 1.265 µM)	relative viability (first compound 4 µM)
HCC-366	0.422	0.329	0.36	0.38
HCC-44	0.975	1.06	1.01	0.959
NCI-H2009	0.234	0.199	0.193	0.203
NCI-H23	0.467	0.444	0.423	0.393
NCI-H727	0.64	0.529	0.648	0.681
NCI-H1355	0.403		0.358	0.366
NCI-H1944	0.335	0.359	0.314	0.383
NCI-H2023	0.336	0.458	0.337	0.354
NCI-H1650	0.5	0.436	0.25	0.186
NCI-H1395	0.631	0.617	0.592	0.597
NCI-H2087	0.217	0.224	0.18	0.139
NCI-H838	0.253	0.25	0.18	0.199
NCI-H1793	0.309	0.319	0.32	0.303
LC-2-ad	0.47	0.499	0.462	0.538
HCC-78	0.521	0.432	0.497	0.455
NCI-H522	1.02	0.801	0.903	1.04
LOU-NH91	0.519	0.522	0.579	0.553
NCI-H1734	0.343	0.326	0.323	0.36

Cell Line	relative viability (first compound 0.04 µM)	relative viability (first compound 0.4 µM)	relative viability (first compound 1.265 µM)	relative viability (first compound 4 µM)
NCI-H520	0.269	0.238	0.172	0.245
UMC-11	0.364	0.344	0.347	0.379
NCI-H1755	0.436	0.443	0.456	0.447
SK-LU-1	0.424	0.342	0.245	0.312
NCI-H647	0.505	0.376	0.33	0.282
SW 1573	0.415	0.373	0.309	0.337
HCC-15	0.77	0.491	0.564	0.367
NCI-H2126	0.357	0.353	0.356	0.349
NCI-H2085	0.461	0.446	0.473	0.439
SW 900	0.538	0.624	0.507	0.492
BEN	0.511	0.394	0.432	0.519
NCI-H650	0.319	0.236	0.266	0.259
LCLC-103H	0.462	0.45	0.266	0.389
PC-14	0.581		0.553	0.541
NCI-H2228	1.02	0.313	0.467	0.701
COR-L23	0.316	0.251	0.261	0.207
NCI-H1915	0.58		0.517	0.297
